What all share (assay type): biochemical
In one assay the target is B-Raf (Homo sapiens (Human), UniProt P15056). The assay can be described thus: Raf kinase assay (B-Raf), [33P] incorporation into MEK1(K97R). The settings on record: for inhibition at 1 µM: 1.0 μM compound, read-out: B-Raf inhibition at 1.0 μM. The procedure: (§1) A. Raf Kinase Assays (B-Raf, B-raf (V600E), and C-Raf)
(§2) Inhibition of kinase activity by test compound disclosed herein was estimated by quantifying the amount of [^33P] incorporation of substrate in the presence of test compound. Standard assay conditions were 2 ng of recombinant C-Raf or 5 ng of recombinant B-Raf or 5 ng of recombinant B-Raf (V600E) kinase (Upstate Biotechnology) with 500 ng MEK1(K97R) in assay buffer {8 μM ATP, 0.5 μCi [^33P]ATP (specific activity 3000 Ci/mmol, PerkinElmer), 50 mM Tris/HCl (pH7.5), and 1 mM EGTA, 1 mM Na3VO4, 1% 2-mercaptoethanol, 0.1% Brij 35, and 0.2 mg/ml BSA} at a final volume of 25 μL. Reactions were incubated at 30° C. for 30 min and stopped by adding 3% phosphoric acid, harvested onto a 96-well GF/B UniFilter (PerkinElmer) using a unifilter harvester (PerkinElmer), and counted with a TopCount microplate scintillation counter (PerkinElmer). The IC50 values of inhibitors were determined after carrying out assays at 3-fold serially diluted concentrations of each compound in duplication. The results were analyzed using linear regression software (GraphPad Prism 4; GraphPad Software Inc.). Inhibition of B-Raf, B-raf (V600E), and C-Raf kinases by various compounds listed in Table 1 are summarized and shown in Table 3 below. IC50 value is defined as the concentration of the test compound which achieves a half-maximal inhibition of the kinase activity.

A further assay addresses B-Raf (V600E) (Homo sapiens (Human), UniProt P15056, V600E). Briefly: Raf kinase assay (B-Raf (V600E)), [33P] incorporation into MEK1(K97R). The procedure:
as §1, §2

Another assay deals with C-Raf (Homo sapiens (Human), UniProt P04049). The assay can be described thus: Raf kinase assay (C-Raf), [33P] incorporation into MEK1(K97R). The procedure: as §1, §2
Chain of C-Raf (P04049 whole entry): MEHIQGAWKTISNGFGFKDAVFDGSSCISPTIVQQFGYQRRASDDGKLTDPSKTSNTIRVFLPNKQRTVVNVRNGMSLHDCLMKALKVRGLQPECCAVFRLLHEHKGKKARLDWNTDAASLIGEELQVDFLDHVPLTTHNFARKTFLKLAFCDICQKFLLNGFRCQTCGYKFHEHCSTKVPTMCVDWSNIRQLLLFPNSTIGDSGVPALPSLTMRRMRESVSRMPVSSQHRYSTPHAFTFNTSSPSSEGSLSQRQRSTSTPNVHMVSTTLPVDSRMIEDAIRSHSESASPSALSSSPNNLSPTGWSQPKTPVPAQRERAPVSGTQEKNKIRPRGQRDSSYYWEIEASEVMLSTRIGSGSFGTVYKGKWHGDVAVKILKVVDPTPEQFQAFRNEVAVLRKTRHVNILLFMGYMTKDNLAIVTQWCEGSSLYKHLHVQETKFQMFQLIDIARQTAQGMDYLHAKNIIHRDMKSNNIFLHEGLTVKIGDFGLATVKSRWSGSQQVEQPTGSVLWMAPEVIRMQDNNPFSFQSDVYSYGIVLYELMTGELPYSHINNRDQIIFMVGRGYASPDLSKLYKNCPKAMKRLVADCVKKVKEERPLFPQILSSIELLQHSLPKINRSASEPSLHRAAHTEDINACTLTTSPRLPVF

Chain of B-Raf (P15056 whole entry): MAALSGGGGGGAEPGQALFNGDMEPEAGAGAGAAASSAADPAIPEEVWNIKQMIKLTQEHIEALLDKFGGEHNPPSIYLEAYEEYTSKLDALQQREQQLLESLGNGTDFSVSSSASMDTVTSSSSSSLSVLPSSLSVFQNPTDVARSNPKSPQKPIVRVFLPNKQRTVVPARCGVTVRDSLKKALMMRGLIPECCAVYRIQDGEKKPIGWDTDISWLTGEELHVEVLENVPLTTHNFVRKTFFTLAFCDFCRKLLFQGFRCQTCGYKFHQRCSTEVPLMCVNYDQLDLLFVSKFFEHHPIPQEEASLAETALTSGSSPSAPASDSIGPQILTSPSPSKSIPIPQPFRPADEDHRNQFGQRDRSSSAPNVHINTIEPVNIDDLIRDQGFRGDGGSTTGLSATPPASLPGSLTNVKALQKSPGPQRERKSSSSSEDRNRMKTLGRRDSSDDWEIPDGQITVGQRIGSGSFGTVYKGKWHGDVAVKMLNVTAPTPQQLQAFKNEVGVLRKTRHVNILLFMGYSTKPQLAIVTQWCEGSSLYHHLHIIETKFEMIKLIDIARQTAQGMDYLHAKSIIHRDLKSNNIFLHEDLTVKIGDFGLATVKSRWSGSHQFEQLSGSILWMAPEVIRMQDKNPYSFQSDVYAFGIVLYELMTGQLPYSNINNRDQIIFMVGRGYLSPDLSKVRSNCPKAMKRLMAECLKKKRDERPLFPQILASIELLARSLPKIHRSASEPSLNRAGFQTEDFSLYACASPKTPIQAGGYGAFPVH
Chain of B-Raf (V600E) (P15056 whole entry V600E): as the sequence (P15056 whole entry) above, with V600E counted along it

As a reminder, the IC50 is the midpoint of a concentration-inhibition curve. A low value points to higher potency. Broadly, the inhibition is how much of the control response was suppressed. For the compound `COc1cc(-c2ccc3ncnc(Nc4cccc(F)c4)c3c2)ccc1O` [Compound 52, 4-(4-(3-fluorophenylamino)quinazolin-6-yl)-2-methoxyphenol], the IC50 is 560 nM on B-Raf, 544 nM against B-Raf (V600E) and 1300 nM against C-Raf. For the same compound, the inhibition at 1 µM at B-Raf stood at 69.2%.
The like results for `COc1cc(-c2ccc3ncnc(Nc4cccc(O)c4C)c3c2)ccc1O` [Compound 53, 3-(6-(4-hydroxy-3-methoxyphenyl)quinazolin-4-ylamino)-2-methylphenol] were, in that order, 141 nM, 181 nM, 500 nM and 85.5%.
The like results for `COc1cc(-c2ccc3ncnc(Nc4ccc5nc[nH]c5c4)c3c2)ccc1O` [Compound 54, 4-(4-(1H-benzo[d]imidazol-6-ylamino)quinazolin-6-yl)-2-methoxyphenol] were, in that order, 735 nM, 633 nM, 2570 nM and 56.2%.
In the same order, the values of `COc1cc(-c2ccc3ncnc(Nc4cccc(NS(C)(=O)=O)c4)c3c2)ccc1O` [Compound 56, N-(3-(6-(4-hydroxy-3-methoxyphenyl)quinazolin-4-ylamino)phenyl)methanesulfonamide] are 463 nM, 430 nM, 1410 nM and 64.1%.
Turning to `COc1cc(-c2ccc3ncnc(Nc4ccc5[nH]nnc5c4)c3c2)ccc1O` [Compound 66, 4-(4-(1H-benzo[d][1,2,3]triazol-5-ylamino)quinazolin-6-yl)-2-methoxyphenol], the concentration for half-maximal inhibition (IC50) was found to be 1010 nM at B-Raf, 933 nM against B-Raf (V600E) and 973 nM on C-Raf. For the same compound, at B-Raf, the inhibition at 1 µM was 59.3%.
In the same order, the values of `COc1cccc(-c2ccc3ncnc(Nc4cccc(O)c4)c3c2)c1` [Compound 67, 3-(6-(3-methoxyphenyl)quinazolin-4-ylamino)phenol] are 103 nM, 139 nM, 2400 nM and 84.3%.
Regarding `Nc1ccc(-c2ccc3ncnc(Nc4cccc5[nH]ncc45)c3c2)cc1` [Compound 69, 6-(4-aminophenyl)-N-(1H-indazol-4-yl)quinazolin-4-amine], the half-inhibitory concentration (IC50) was 260 nM at B-Raf, 342 nM on B-Raf (V600E) and 957 nM on C-Raf. Besides, the inhibition at 1 µM at B-Raf was 75%.
In the same order, the values of `CC(=O)Nc1ccc(-c2ccc3ncnc(Nc4cccc5[nH]ncc45)c3c2)cc1` [Compound 71, N-(4-(4-(1H-indazol-4-ylamino)quinazolin-6-yl)phenyl)acetamide] are 373 nM, 393 nM, 935 nM and 77.2%.
For `CS(=O)(=O)Nc1cccc(-c2ccc3ncnc(Nc4cccc(O)c4)c3c2)c1` [Compound 72, N-(3-(4-(3-hydroxyphenylamino)quinazolin-6-yl)phenyl)methanesulfonamide], the concentration for half-maximal inhibition (IC50) against B-Raf was 73.8 nM; at B-Raf (V600E) it was 90 nM; at C-Raf, 861 nM. Moreover, at B-Raf, the inhibition at 1 µM was 93.4%.
The like results for `CS(=O)(=O)Nc1ccc(-c2ccc3ncnc(Nc4cccc5[nH]ncc45)c3c2)cc1` [Compound 73, N-(4-(4-(1H-indazol-4-ylamino)quinazolin-6-yl)phenyl)methanesulfonamide] were, in that order, 366 nM, 487 nM, 1430 nM and 72.5%.
The like results for `COc1ccc(-c2ccc3ncnc(Nc4cccc5[nH]ncc45)c3c2)cc1Cl` [Compound 76, 6-(3-chloro-4-methoxyphenyl)-N-(1H-indazol-4-yl)quinazolin-4-amine] were, in that order, 216 nM, 240 nM, 876 nM and 86.1%.
The like results for `COc1ccc(-c2ccc3ncnc(Nc4cccc5[nH]ncc45)c3c2)c(C)c1` [Compound 77, N-(1H-indazol-4-yl)-6-(4-methoxy-2-methylphenyl)quinazolin-4-amine] were, in that order, 698 nM, 911 nM, 2530 nM and 61.7%.
For `COc1ccc(-c2ccc3ncnc(Nc4cccc5[nH]ncc45)c3c2)cc1C` [Compound 78, N-(1H-indazol-4-yl)-6-(4-methoxy-3-methylphenyl)quinazolin-4-amine], the IC50 against B-Raf was 470 nM; at B-Raf (V600E), 736 nM; on C-Raf, 1860 nM. Besides, the inhibition at 1 µM at B-Raf was 71.1%.
On to `Fc1ccc(-c2ccc3ncnc(Nc4cccc5[nH]ncc45)c3c2)cc1Cl` [Compound 79, 6-(3-chloro-4-fluorophenyl)-N-(1H-indazol-4-yl)quinazolin-4-amine], for which the IC50 was 514 nM against B-Raf, 557 nM on B-Raf (V600E) and 1220 nM on C-Raf. In addition, on B-Raf, the inhibition at 1 µM is 69.6%.
`Clc1ccc(-c2ccc3ncnc(Nc4cccc5[nH]ncc45)c3c2)cc1` [Compound 80, 6-(4-chlorophenyl)-N-(1H-indazol-4-yl)quinazolin-4-amine]: the results for the 50% inhibitory concentration (IC50) on B-Raf, on B-Raf (V600E) and at C-Raf were 287 nM, 289 nM and 919 nM, respectively. The inhibition at 1 µM at B-Raf amounted to 77.2%.
Consider `Fc1cccc(-c2ccc3ncnc(Nc4cccc5[nH]ncc45)c3c2)c1` [Compound 81, 6-(3-fluorophenyl)-N-(1H-indazol-4-yl)quinazolin-4-amine], for which the figures for the 50% inhibitory concentration (IC50) against B-Raf, against B-Raf (V600E) and on C-Raf were 244 nM, 280 nM and 588 nM, respectively. At B-Raf, the inhibition at 1 µM was 79.1%.
Regarding `COc1cc(-c2ccc3ncnc(Nc4cccc5[nH]nnc45)c3c2)ccc1O` [Compound 82, 4-(4-(1H-benzo[d][1,2,3]triazol-4-ylamino)quinazolin-6-yl)-2-methoxyphenol], the results for the IC50 on B-Raf, on B-Raf (V600E) and at C-Raf were 668 nM, 702 nM and 1270 nM, respectively. Further, the inhibition at 1 µM at B-Raf came out at 58%.
Consider `c1ccc(-c2ccc3ncnc(Nc4cccc5[nH]ncc45)c3c2)cc1` [Compound 86, N-(1H-indazol-4-yl)-6-phenylquinazolin-4-amine], for which the IC50 stood at 201 nM against B-Raf, 287 nM against B-Raf (V600E) and 597 nM at C-Raf. The inhibition at 1 µM on B-Raf stood at 77.8%.
In the same order, the values of `FC(F)(F)c1cccc(-c2ccc3ncnc(Nc4cccc5[nH]ncc45)c3c2)c1` [Compound 87, N-(1H-indazol-4-yl)-6-(3-(trifluoromethyl)phenyl)quinazolin-4-amine] are 356 nM, 371 nM, 844 nM and 71.3%.
In the case of `N#Cc1ccc(-c2ccc3ncnc(Nc4cccc5[nH]ncc45)c3c2)cc1` [Compound 88, 4-(4-(1H-indazol-4-ylamino)quinazolin-6-yl)benzonitrile], the IC50 against B-Raf is 249 nM; on B-Raf (V600E) it was 299 nM; against C-Raf it was 630 nM. Further, at B-Raf, the inhibition at 1 µM worked out at 77.4%.
In the same order, the values of `COc1ccc(-c2ccc3ncnc(Nc4cccc5[nH]ncc45)c3c2)cc1OC` [Compound 89, 6-(3,4-dimethoxyphenyl)-N-(1H-indazol-4-yl)quinazolin-4-amine] are 205 nM, 259 nM, 869 nM and 80.4%.
Consider `CN(C)c1ccc(-c2ccc3ncnc(Nc4cccc5[nH]ncc45)c3c2)cc1` [Compound 90, 6-(4-(dimethylamino)phenyl)-N-(1H-indazol-4-yl)quinazolin-4-amine], for which the IC50 at B-Raf was 762 nM; on B-Raf (V600E), 1010 nM; on C-Raf it was 4080 nM. Further, the inhibition at 1 µM on B-Raf amounted to 56.1%.
On to `Fc1ccccc1-c1ccc2ncnc(Nc3cccc4[nH]ncc34)c2c1` [Compound 91, 6-(2-fluorophenyl)-N-(1H-indazol-4-yl)quinazolin-4-amine], for which the IC50 on B-Raf amounted to 155 nM; against B-Raf (V600E) it was 255 nM; against C-Raf, 709 nM. Besides, the inhibition at 1 µM at B-Raf was determined as 85.3%.
Consider `O=[N+]([O-])c1cccc(-c2ccc3ncnc(Nc4cccc5[nH]ncc45)c3c2)c1` [Compound 92, N-(1H-indazol-4-yl)-6-(3-nitrophenyl)quinazolin-4-amine], for which the IC50 against B-Raf is 428 nM; against B-Raf (V600E), 535 nM; on C-Raf, 1610 nM. Moreover, the inhibition at 1 µM at B-Raf was 66.3%.
In the same order, the values of `CCOc1ccc(-c2ccc3ncnc(Nc4cccc5[nH]ncc45)c3c2)cc1` [Compound 93, 6-(4-ethoxyphenyl)-N-(1H-indazol-4-yl)quinazolin-4-amine] are 347 nM, 355 nM, 1560 nM and 76.6%.
For the compound `OCc1cccc(-c2ccc3ncnc(Nc4cccc5[nH]ncc45)c3c2)c1` [Compound 94, (3-(4-(1H-indazol-4-ylamino)quinazolin-6-yl)phenyl)methanol], the IC50 was found to be 430 nM against B-Raf, 551 nM at B-Raf (V600E) and 1410 nM on C-Raf. For the same compound, the inhibition at 1 µM at B-Raf came to 76.2%.

Values taken from patent US8785459B2, “Quinazoline compounds as kinase inhibitors” (Development Center for Biotechnology, priority 2011, dated 2014).
